According to patent publication US20100311683A1, “CYTIDINE ANALOGS FOR TREATMENT OF MYELODYSPLASTIC SYNDROMES” (priority 2007, published 2010):
Read-outs that look alike come from different tables or passages of the source.

How the values were obtained:
[1] = test system: patients ≥60 years with AML
[2] = test system: patients with hematologic disorders, predominantly low-risk MDS; experiment: AVIDA longitudinal registry of patients receiving azacitidine (transfusion independence); format: in vivo, human
Source text: The study assessed usage patterns and transfusion requirements in patients enrolled in AVIDA, a longitudinal registry of patients with hematologic disorders receiving azacitidine, to further the understanding of current azacitidine treatment patterns in the community, identify common care procedures and concomitant treatments, and document transfusion requirements. Baseline demographics and disease characteristics were obtained at enrollment.

[3] = test system: high-risk MDS patients with -7/del(7q); experiment: AZA-001 subgroup analysis: patients with -7/del(7q); format: in vivo, human
MDS patients [4] = conditions: pivotal CALGB study, approved Aza dose regimen subcutaneously; cited from earlier work
[5] = test system: patients older than 55 years of age with AML; conditions: patients older than 55 years with AML, prior retrospective analysis; cited from earlier work
MDS patients [6] = test system: MDS patients

Nc1ncn([C@@H]2O[C@H](CO)[C@@H](O)[C@H]2O)c(=O)n1 [azacitidine, 4-amino-1-β-D-ribofuranosyl-1,3,5-triazin-2(1H)-one]
fatigue ([1]; 5/8): 63%
mild injection site skin reaction ([1]; 5/8): 63%
mean overall survival time from diagnosis ([1]; all patients): 180 days
overall response rate ([1]; azacitidine 100 mg/m2 SC 5 days every 28 days, 6/8 patients): 75%
mean number of days hospitalized during therapy ([1]; in vivo): 18 days
treatment related deaths ([1]; in vivo): No treatment related deaths were observed
complete response (CR) ([1]; n=2 of 8): 25%
partial response (PR) ([1]; n=4 of 8): 50%
mean overall survival time ([1]; responders): 200 days
responders who became independent of RBC transfusion ([1]; two of the six responders): 33%
patients with a history of transfusions who achieved transfusion-independence ([2]; 16/43, at least 2 cycles of azacitidine): 37%
patients without a history of transfusion who achieved transfusion independence ([2]; 22/27, at least 2 cycles of azacitidine): 81%
median cycles to transfusion independence ([2]; patients with a history of transfusions): 6 cycles
median cycles to transfusion independence ([2]; patients without a history of transfusion): 4 cycles
IWG 2000 response rate (CR+PR) ([3]; -7/del(7q) alone): 64%
IWG 2000 response rate (CR+PR) ([3]; -7/del(7q) as part of complex karyotype): 21%
CR ([3]; -7/del(7q) patients): 8/30, 27%
CR + PR ([3]; -7/del(7q) patients): 13/30, 43%
HI-E ([3]; -7/del(7q) patients): 13/26, 50%
HI-P ([3]; -7/del(7q) patients): 10/20, 50%
RBC TI (transfusion independence) ([3]; RBC-dependent -7/del(7q) patients at BL): 12/21, 57%
OS advantage at 2 years vs CCR ([3]; patients with -7/del(7q)): 4 fold
hazard ratio for overall survival, azacitidine vs CCR ([3]; patients with -7/del(7q)): 0.33
improvement in OS over CCR ([3]; patients with -7/del(7q)): 3 fold
median Kaplan Meier difference in OS, AZA vs CCR ([3]; patients with -7/del(7q)): 8.4 months
patients alive at 2 years ([3]; patients with -7/del(7q)): 33%
reduced risk of death vs CCR ([3]; patients with -7/del(7q)): 67%
tolerability ([3]; patients with -7/del(7q)): generally well tolerated
median Kaplan-Meier overall survival ([3]; patients with -7/del(7q), azacitidine n=30): 13.1 months
baseline RBC transfusion dependent patients who achieved transfusion independence (MDS patients [4]): 45%
overall response rate [5]: 60%
FAB low-risk patients RBC transfusion independent at baseline who remained independent during the study (MDS patients [6]; AZA 5 (75 mg/m2/d x5d)): 64%
RBC transfusion-dependent patients who achieved and retained independence at the end of cycle 6 (MDS patients [6]; AZA 5 (75 mg/m2/d x5d)): 63%
evaluable patients RBC transfusion independent at baseline who remained independent during the study (MDS patients [6]; AZA 5 (75 mg/m2/d x5d)): 68%
mean duration of RBC transfusion independence (MDS patients [6]; AZA 5 (75 mg/m2/d x5d)): 109 days
onset of HI within the first 3 cycles (MDS patients [6]; AZA 5 (75 mg/m2/d x5d)): 96%
patients with at least 1 treatment-emergent AE that led to study discontinuation (MDS patients [6]; AZA 5 (75 mg/m2/d x5d)): 14%
patients with bilineage HI (MDS patients [6]; AZA 5 (75 mg/m2/d x5d)): 10%
patients with serious AEs (MDS patients [6]; AZA 5 (75 mg/m2/d x5d)): 30%
Any HI (major and minor) (MDS patients [6]; AZA 5 (75 mg/m2/d x5d), N=49): 27 (55) [40, 69] %
Erythroid Major HI (IWG 2000), evaluable patients (MDS patients [6]; AZA 5 (75 mg/m2/d x5d), N=49): 18 (37) [23, 52] %
Erythroid Minor HI (MDS patients [6]; AZA 5 (75 mg/m2/d x5d), N=49): 1 (2) [0.1, 11] %
Neutrophil Major HI (MDS patients [6]; AZA 5 (75 mg/m2/d x5d), N=49): 4 (8) [40, 100] %
Neutrophil Minor HI (MDS patients [6]; AZA 5 (75 mg/m2/d x5d), N=49): 2 (4) [0.5, 14] %
Platelet Major HI (MDS patients [6]; AZA 5 (75 mg/m2/d x5d), N=49): 9 (18) [9, 32] %
Platelet Minor HI (MDS patients [6]; AZA 5 (75 mg/m2/d x5d), N=49): 2 (4) [0.5, 14] %
Grade 3/4 AE: Anemia (MDS patients [6]; AZA 5 (75 mg/m2/d x5d), N=50): 5 (10) %
Grade 3/4 AE: Candida Sepsis (MDS patients [6]; AZA 5 (75 mg/m2/d x5d), N=50): 1 (2) %
Grade 3/4 AE: Cellulitis (MDS patients [6]; AZA 5 (75 mg/m2/d x5d), N=50): 1 (2) %
Grade 3/4 AE: Epistaxis (MDS patients [6]; AZA 5 (75 mg/m2/d x5d), N=50): 0%
Grade 3/4 AE: Febrile neutropenia (MDS patients [6]; AZA 5 (75 mg/m2/d x5d), N=50): 1 (2) %
Grade 3/4 AE: GI hemorrhage (MDS patients [6]; AZA 5 (75 mg/m2/d x5d), N=50): 0%
Grade 3/4 AE: Hematologic Disorders (MDS patients [6]; AZA 5 (75 mg/m2/d x5d), N=50): 17 (34) %
Grade 3/4 AE: Hemorrhagic Events (MDS patients [6]; AZA 5 (75 mg/m2/d x5d), N=50): 1 (2) %
Grade 3/4 AE: Hemorrhagic anemia (MDS patients [6]; AZA 5 (75 mg/m2/d x5d), N=50): 1 n (%)
Grade 3/4 AE: Infections (MDS patients [6]; AZA 5 (75 mg/m2/d x5d), N=50): 5 (10) %
Grade 3/4 AE: Leukopenia (MDS patients [6]; AZA 5 (75 mg/m2/d x5d), N=50): 4 (8) %
Grade 3/4 AE: Neutropenia (MDS patients [6]; AZA 5 (75 mg/m2/d x5d), N=50): 11 (22) %
Grade 3/4 AE: Pneumonia (MDS patients [6]; AZA 5 (75 mg/m2/d x5d), N=50): 1 (2) %
Grade 3/4 AE: Rectal hemorrhage (MDS patients [6]; AZA 5 (75 mg/m2/d x5d), N=50): 0%
Grade 3/4 AE: Thrombocytopenia (MDS patients [6]; AZA 5 (75 mg/m2/d x5d), N=50): 6 (12) %
Grade 3/4 AE: Urinary tract infection (MDS patients [6]; AZA 5 (75 mg/m2/d x5d), N=50): 0%
Grade 3/4 AE: ≥1 Adverse Event (MDS patients [6]; AZA 5 (75 mg/m2/d x5d), N=50): 29 (58) %
onset of IWG-defined HI in Cycle 1 (MDS patients [6]; AZA 5 (75 mg/m2/d x5d), n=28): 15 (54) %
onset of IWG-defined HI in Cycle 2 (MDS patients [6]; AZA 5 (75 mg/m2/d x5d), n=28): 10 (36) %
onset of IWG-defined HI in Cycle 3 (MDS patients [6]; AZA 5 (75 mg/m2/d x5d), n=28): 2 (7) %
onset of IWG-defined HI in Cycle 4 (MDS patients [6]; AZA 5 (75 mg/m2/d x5d), n=28): 1 (4) %
onset of IWG-defined HI in Cycle 5 (MDS patients [6]; AZA 5 (75 mg/m2/d x5d), n=28): 0%
onset of IWG-defined HI in Cycle 6 (MDS patients [6]; AZA 5 (75 mg/m2/d x5d), n=28): 0%
FAB low-risk patients RBC transfusion independent at baseline who remained independent during the study (MDS patients [6]; AZA 5-2-2 (75 mg/m2/d)): 75%
RBC transfusion-dependent patients who achieved and retained independence at the end of cycle 6 (MDS patients [6]; AZA 5-2-2 (75 mg/m2/d)): 100%
evaluable patients RBC transfusion independent at baseline who remained independent during the study (MDS patients [6]; AZA 5-2-2 (75 mg/m2/d)): 67%
mean duration of RBC transfusion independence (MDS patients [6]; AZA 5-2-2 (75 mg/m2/d)): 135 days
onset of HI within the first 3 cycles (MDS patients [6]; AZA 5-2-2 (75 mg/m2/d)): 87%
patients with at least 1 treatment-emergent AE that led to study discontinuation (MDS patients [6]; AZA 5-2-2 (75 mg/m2/d)): 18%
patients with bilineage HI (MDS patients [6]; AZA 5-2-2 (75 mg/m2/d)): 11%
patients with serious AEs (MDS patients [6]; AZA 5-2-2 (75 mg/m2/d)): 54%
Any HI (major and minor) (MDS patients [6]; AZA 5-2-2 (75 mg/m2/d), N=46): 20 (44) [29, 59] %
Erythroid Major HI (IWG 2000), evaluable patients (MDS patients [6]; AZA 5-2-2 (75 mg/m2/d), N=46): 15 (33) [20, 48] %
Erythroid Minor HI (MDS patients [6]; AZA 5-2-2 (75 mg/m2/d), N=46): 1 (2) [0.1, 12] %
Neutrophil Major HI (MDS patients [6]; AZA 5-2-2 (75 mg/m2/d), N=46): 3 (7) [29, 100] %
Neutrophil Minor HI (MDS patients [6]; AZA 5-2-2 (75 mg/m2/d), N=46): 0 [0, 8] %
Platelet Major HI (MDS patients [6]; AZA 5-2-2 (75 mg/m2/d), N=46): 10 (22) [11, 36] %
Platelet Minor HI (MDS patients [6]; AZA 5-2-2 (75 mg/m2/d), N=46): 0 [0, 8] %
Grade 3/4 AE: Anemia (MDS patients [6]; AZA 5-2-2 (75 mg/m2/d), N=50): 12 (24) %
Grade 3/4 AE: Candida Sepsis (MDS patients [6]; AZA 5-2-2 (75 mg/m2/d), N=50): 0%
Grade 3/4 AE: Cellulitis (MDS patients [6]; AZA 5-2-2 (75 mg/m2/d), N=50): 2 (4) %
Grade 3/4 AE: Epistaxis (MDS patients [6]; AZA 5-2-2 (75 mg/m2/d), N=50): 1 (2) %
